Patent US8802665B2, “Pyrrolidine derivatives” (Hoffman-La Roche Inc., priority 2012, dated 2014)

target: human Cat S (Homo sapiens (Human), UniProt P25774); assay: Cathepsin enzyme inhibition assay (fluorogenic peptide substrate cleavage); assay type: biochemical; settings: human Cathepsin S 1 nM, substrate Z-Val-Val-Arg-AMC 20 μM, pH 6.5; read-out: Ic50 CatS: human
Procedure: Cathepsin Enzyme Inhibition Assay
Enzyme activity is measured by observing the increase in fluorescence intensity caused by cleavage of a peptide substrate containing a fluorophore whose emission is quenched in the intact peptide. • Assay buffer: 100 mM potassium phosphate pH 6.5, EDTA-Na 5 mM, Triton X-100 0.001%, DTT 5 mM. • Enzymes (all at 1 nM): human and mouse Cathepsin S, Cat K, Cat B, Cat L. • Substrate (20 μM): Z-Val-Val-Arg-AMC, except for Cat K which uses Z-Leu-Arg-AMC (both from Bachem). • Z=Benzyloxycarbonyl. • AMC=7-Amino-4-Methyl-Coumarin. • DTT=dithiothreitol. • Final volume: 100 μL. • Excitation 360 nm, Emission 465 nm.
Enzyme is added to the substance dilutions in 96-well microtitre plates and the reaction is started with substrate. Fluorescence emission is measured over 20 minutes, during which time a linear increase is observed in the absence of inhibitor. IC50 are calculated by standard methods.
Inhibition of human Cat S, mouse Cat S, human Cat K, human Cat B, human Cat L and mouse Cat L have been measured separately. The results obtained for human Cat S for representative compounds of the invention are expressed in the following table in μM.

Chain of human Cat S (P25774 115-331): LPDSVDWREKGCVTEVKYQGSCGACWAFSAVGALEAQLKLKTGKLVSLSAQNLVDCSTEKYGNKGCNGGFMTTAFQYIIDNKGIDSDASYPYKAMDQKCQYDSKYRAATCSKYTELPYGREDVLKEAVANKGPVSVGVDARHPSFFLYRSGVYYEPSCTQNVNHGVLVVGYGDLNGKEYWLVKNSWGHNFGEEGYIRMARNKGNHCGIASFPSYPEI

IC50	SMILES
0.4 nM	CC1CCCN(C2(C(=O)N3C[C@H](S(=O)(=O)c4ccccc4Cl)C[C@H]3C(=O)NC3(C#N)CC3)CC2)C1 (stereo partly drawn) [Example 26, (2S,4R)-4-(2-Chlorophenylsulfonyl)-N-(1-cyanocyclopropyl)-1-(1-(3-methylpiperidin-1-yl)cyclopropanecarbonyl)pyrrolidine-2-carboxamide]
0.3 nM	N#CC1(NC(=O)[C@@H]2C[C@@H](S(=O)(=O)c3ccccc3Cl)CN2C(=O)C2(N3CCSCC3)CC2)CC1 [Example 27, (2S,4R)-4-(2-Chlorophenylsulfonyl)-N-(1-cyanocyclopropyl)-1-(1-thiomorpholinocyclopropanecarbonyl)pyrrolidine-2-carboxamide]
1.2 nM	N#CC1(NC(=O)[C@@H]2C[C@@H](S(=O)(=O)c3ccccc3Cl)CN2C(=O)C2(N3CCCC3)CC2)CC1 [Example 28, (2S,4R)-4-(2-Chlorophenylsulfonyl)-N-(1-cyanocyclopropyl)-1-(1-(pyrrolidin-1-yl)cyclopropanecarbonyl)pyrrolidine-2-carboxamide]
2.3 nM	CC(C)(C)OC(=O)N1CCN(C2(C(=O)N3C[C@H](S(=O)(=O)c4ccccc4Cl)C[C@H]3C(=O)NC3(C#N)CC3)CC2)CC1 [Example 29, tert-Butyl 4-(1-((2S,4R)-4-(2-chlorophenylsulfonyl)-2-(1-cyanocyclopropylcarbamoyl)pyrrolidine-1-carbonyl)cyclopropyl)piperazine-1-carboxylate]
4.2 nM	N#CC1(NC(=O)[C@@H]2C[C@@H](S(=O)(=O)c3ccccc3Cl)CN2C(=O)C2(N3CCNCC3)CC2)CC1 [Example 30, (2S,4R)-4-(2-Chlorophenylsulfonyl)-N-(1-cyanocyclopropyl)-1-(1-(piperazin-1-yl)cyclopropanecarbonyl)pyrrolidine-2-carboxamide]
2.2 nM	CC(=O)N1CCN(C2(C(=O)N3C[C@H](S(=O)(=O)c4ccccc4Cl)C[C@H]3C(=O)NC3(C#N)CC3)CC2)CC1 [Example 31, (2S,4R)-1-(1-(4-Acetylpiperazin-1-yl)cyclopropanecarbonyl)-4-(2-chlorophenylsulfonyl)-N-(1-cyanocyclopropyl)pyrrolidine-2-carboxamide]
2.5 nM	CS(=O)(=O)N1CCN(C2(C(=O)N3C[C@H](S(=O)(=O)c4ccccc4Cl)C[C@H]3C(=O)NC3(C#N)CC3)CC2)CC1 [Example 32, (2S,4R)-4-(2-Chlorophenylsulfonyl)-N-(1-cyanocyclopropyl)-1-(1-(4-(methylsulfonyl)piperazin-1-yl)cyclopropanecarbonyl)pyrrolidine-2-carboxamide]
2.6 nM	COC(=O)N1CCN(C2(C(=O)N3C[C@H](S(=O)(=O)c4ccccc4Cl)C[C@H]3C(=O)NC3(C#N)CC3)CC2)CC1 [Example 33, Methyl 4-(1-((2S,4R)-4-(2-chlorophenylsulfonyl)-2-(1-cyanocyclopropylcarbamoyl)pyrrolidine-1-carbonyl)cyclopropyl)piperazine-1-carboxylate]
1.4 nM	N#CC1(NC(=O)[C@@H]2C[C@@H](S(=O)(=O)c3ccccc3Cl)CN2C(=O)C2(N3CCN(C=O)CC3)CC2)CC1 [Example 34, (2S,4R)-4-(2-Chlorophenylsulfonyl)-N-(1-cyanocyclopropyl)-1-(1-(4-formylpiperazin-1-yl)cyclopropanecarbonyl)pyrrolidine-2-carboxamide]
3.7 nM	N#CC1(NC(=O)[C@@H]2C[C@@H](S(=O)(=O)c3ccccc3Cl)CN2C(=O)C2(N3CCN(C(=O)C(F)(F)F)CC3)CC2)CC1 [Example 35, (2S,4R)-4-(2-Chlorophenylsulfonyl)-N-(1-cyanocyclopropyl)-1-(1-(4-(2,2,2-trifluoroacetyl)piperazin-1-yl)cyclopropanecarbonyl)pyrrolidine-2-carboxamide]
6.2 nM	CCN1CCN(C2(C(=O)N3C[C@H](S(=O)(=O)c4ccccc4Cl)C[C@H]3C(=O)NC3(C#N)CC3)CC2)CC1 [Example 36, (2S,4R)-4-(2-Chlorophenylsulfonyl)-N-(1-cyanocyclopropyl)-1-(1-(4-ethylpiperazin-1-yl)cyclopropanecarbonyl)pyrrolidine-2-carboxamide]
1.2 nM	N#CC1(NC(=O)[C@@H]2C[C@@H](S(=O)(=O)c3ccccc3Cl)CN2C(=O)C2(N3CCC(c4ccccc4)CC3)CC2)CC1 [Example 37, (2S,4R)-4-(2-chlorophenylsulfonyl)-N-(1-cyanocyclopropyl)-1-(1-(4-phenylpiperidin-1-yl)cyclopropanecarbonyl)pyrrolidine-2-carboxamide]
0.5 nM	CC1CCN(C2(C(=O)N3C[C@H](S(=O)(=O)c4ccccc4Cl)C[C@H]3C(=O)NC3(C#N)CC3)CC2)CC1 [Example 38, (2S,4R)-4-(2-chlorophenylsulfonyl)-N-(1-cyanocyclopropyl)-1-(1-(4-methylpiperidin-1-yl)cyclopropanecarbonyl)pyrrolidine-2-carboxamide]
0.8 nM	N#CC1(NC(=O)[C@@H]2C[C@@H](S(=O)(=O)c3ccccc3Cl)CN2C(=O)C2(N3CCOCC3)CC2)CC1 [Example 39, (2S,4R)-4-(2-Chlorophenylsulfonyl)-N-(1-cyanocyclopropyl)-1-(1-morpholino-cyclopropanecarbonyl)pyrrolidine-2-carboxamide]
0.5 nM	N#CC1(NC(=O)[C@@H]2C[C@@H](S(=O)(=O)c3ccccc3Cl)CN2C(=O)C2(N3CCCCCC3)CC2)CC1 [Example 40, (2S,4R)-1-(1-(Azepan-1-yl)cyclopropanecarbonyl)-4-(2-chlorophenylsulfonyl)-N-(1-cyanocyclopropyl)pyrrolidine-2-carboxamide]
0.9 nM	CC1CCCCN1C1(C(=O)N2C[C@H](S(=O)(=O)c3ccccc3Cl)C[C@H]2C(=O)NC2(C#N)CC2)CC1 (stereo partly drawn) [Example 41, (2S,4R)-4-(2-Chlorophenylsulfonyl)-N-(1-cyanocyclopropyl)-1-(1-(2-methylpiperidin-1-yl)cyclopropanecarbonyl)pyrrolidine-2-carboxamide]
0.4 nM	N#CC1(NC(=O)[C@@H]2C[C@@H](S(=O)(=O)c3ccc(F)cc3Cl)CN2C(=O)C2(N3CCCCC3)CC2)CC1 [Example 42, (2S,4R)-4-(2-Chloro-4-fluorophenylsulfonyl)-N-(1-cyanocyclopropyl)-1-(1-(piperidin-1-yl)cyclopropanecarbonyl)pyrrolidine-2-carboxamide]
0.3 nM	N#CC1(NC(=O)[C@@H]2C[C@@H](S(=O)(=O)c3cccc(Cl)c3)CN2C(=O)C2(N3CCCCC3)CC2)CC1 [Example 43, (2S,4R)-4-(3-Chlorophenylsulfonyl)-N-(1-cyanocyclopropyl)-1-(1-(piperidin-1-yl)cyclopropanecarbonyl)pyrrolidine-2-carboxamide]
0.4 nM	Cc1ccc(S(=O)(=O)[C@@H]2C[C@@H](C(=O)NC3(C#N)CC3)N(C(=O)C3(N4CCCCC4)CC3)C2)cc1 [Example 44, (2S,4R)-N-(1-Cyanocyclopropyl)-1-(1-(piperidin-1-yl)cyclopropanecarbonyl)-4-tosylpyrrolidine-2-carboxamide]
0.8 nM	N#CC1(NC(=O)[C@@H]2C[C@@H](S(=O)(=O)c3ccccc3OC(F)(F)F)CN2C(=O)C2(N3CCCCC3)CC2)CC1 [Example 45, (2S,4R)-N-(1-Cyanocyclopropyl)-1-(1-(piperidin-1-yl)cyclopropanecarbonyl)-4-(2-(trifluoromethoxy)phenylsulfonyl)pyrrolidine-2-carboxamide]
0.4 nM	N#CC1(NC(=O)[C@@H]2C[C@@H](S(=O)(=O)c3cccc(C(F)(F)F)c3)CN2C(=O)C2(N3CCCCC3)CC2)CC1 [Example 46, (2S,4R)-N-(1-Cyanocyclopropyl)-1-(1-(piperidin-1-yl)cyclopropanecarbonyl)-4-(3-(trifluoromethyl)phenylsulfonyl)pyrrolidine-2-carboxamide]
0.8 nM	N#CC1(NC(=O)[C@@H]2C[C@@H](S(=O)(=O)c3ccc(Cl)cc3)CN2C(=O)C2(N3CCCCC3)CC2)CC1 [Example 47, (2S,4R)-4-(4-Chlorophenylsulfonyl)-N-(1-cyanocyclopropyl)-1-(1-(piperidin-1-yl)cyclopropanecarbonyl)pyrrolidine-2-carboxamide]
2.3 nM	CC1(C)CCCN(C2(C(=O)N3C[C@H](S(=O)(=O)c4ccccc4Cl)C[C@H]3C(=O)NC3(C#N)CC3)CC2)C1 [Example 48, (2S,4R)-4-(2-Chlorophenylsulfonyl)-N-(1-cyanocyclopropyl)-1-(1-(3,3-dimethylpiperidin-1-yl)cyclopropanecarbonyl)pyrrolidine-2-carboxamide]
